Earlier results as cited in patent publication US20230131493A1, “METHODS OF TREATING AGITATION ASSOCIATED WITH ALZHEIMER'S DISEASE” (Avanir Phrmaceuticals Inc., priority 2021, published 2023).
Counter-ions that a name gives are not always drawn.

Tests used:
[1] = a P-glycoprotein substrate
[2] = target: sigma-1 receptor (Homo sapiens, UniProt Q99720)
Sequence of sigma-1 receptor (Q99720 whole entry, species assumed): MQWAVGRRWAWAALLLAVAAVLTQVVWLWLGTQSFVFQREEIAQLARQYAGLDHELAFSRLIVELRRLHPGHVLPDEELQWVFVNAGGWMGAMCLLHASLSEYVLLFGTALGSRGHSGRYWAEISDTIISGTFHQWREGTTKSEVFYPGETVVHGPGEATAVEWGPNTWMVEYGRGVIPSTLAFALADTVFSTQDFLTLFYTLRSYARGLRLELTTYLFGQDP

| Structure (SMILES) | serum digoxin levels on concomitant administration with digoxin [1] | receptor binding [2] |
| --- | --- | --- |
| C=C[C@H]1CN2CC[C@H]1C[C@@H]2[C@@H](O)c1ccnc2ccc(OC)cc12.C=C[C@H]1CN2CC[C@H]1C[C@@H]2[C@@H](O)c1ccnc2ccc(OC)cc12.O=S(=O)(O)O [Quinidine, quinidine sulfate] | may be as much as doubled | – |
| [2H]C([2H])([2H])Oc1ccc2c(c1)[C@]13CCCC[C@@H]1[C@H](C2)N(C([2H])([2H])[2H])CC3 [d6-DM, deuterated [d6]-dextromethorphan hydrobromide] | – | binds to the sigma-1 receptor |
